Some results are limits rather than exact numbers.

The target in data set [1] is T1, thrombin (Homo sapiens, UniProt P00734).
T1 construct: purchased Bio-techne
Briefly: fluorometric enzyme inhibition assay, thrombin (Z-Gly-Gly-Arg-AMC). In kind it is biochemical. As to conditions: from IC50 by Cheng-Prusoff; n.a. = not active, <80% inhibition at 20 µM. On the procedure: (§1) The inhibitory activity of the synthesized compounds towards the respective main- and off-target proteases was measured via fluorometric and colorimetric assays. Thus, fluorogenic AMC- or colorimetric pNA-based substrates with a peptide sequence suitable for the tested protease were utilized (see Supplementary Figure S2). At first, the compounds were screened against […] proteases (uPA, TMPRSS2, matriptase, tPA, thrombin, factor Xa) at 20 µM, and a cut-off value of 80% inhibition at this concentration was set, for the differentiation between nonactive (n.a.) and active inhibitors. Due to the reversible inhibition mechanism of the ketobenzothiazole derivates, the IC50 values were determined with Graphpad Prism 9, and afterwards converted to the corresponding Ki values for an adequate comparison between the inhibitory activities of the compounds toward all tested proteases. The Ki values were calculated using the Cheng–Prusoff equation [43].
(§2) Fluorometric inhibition assays
(§3) The inhibitory activities of the compounds against the proteases were determined by enzyme inhibition assays with fluorogenic or colorimetry-based substrates. The fluorescence, caused by cleaved AMC from the fluorogenic substrates (uPA, matriptase, TMPRSS2, thrombin), was measured in white flat-bottom 96-well plates from Greiner Bio-One using a Tecan Infinite F200 Pro plate reader. The absorption, caused by cleaved pNA from colorimetric substrates (factor Xa and tPA), was measured in transparent flat-bottom 96-well plates from Greiner Bio-One using a Tecan Spark 10M plate reader. All measurements with the main-target proteases (uPA and TMRPSS2) were performed as triplicates and with the off-target proteases (matriptase, factor Xa, tPA, thrombin) as duplicates. The substrates and the compounds were prepared as stock solutions in DMSO. Each well contained a total volume of 200 µL, consisting of 185 µL buffer, 5 µL inhibitor in DMSO or pure DMSO as negative control, 5 µL substrate in DMSO and 5 µL enzyme solution in buffer. Dilution series were prepared for the determination of the inhibition constants. The fluorescence signal and absorbance were measured every 30 s for 10 min at 25 or 37 °C with the corresponding excitation/emission (λex = 380 nm / λem = 460 nm) and absorbance (λabs = 405 nm) wavelengths, depending on the targeted protease. IC50 values for the reversible inhibitors were calculated with Graphpad Prism 9 by fitting the remaining enzymatic activity to the four parameter IC50 equation with Y [%] as the residual enzyme activity , Ymax as the maximum value of the dose response curve at inhibitor concentrations [I] = 0 µM, Ymin as the minimum value at high inhibitor concentrations and s as the hill coefficient.[1] The fluorescence progress curves and sigmoidal dose-response curve for inhibition of uPa by compound 38 is shown exemplary in Figure S2. […]
(§4) Due to the dependence of the IC50 value on the substrate affinity and concentration, the Ki values were calculated with the Cheng-Prusoff equation, using the final substrate concentration [S] and the Michaelis-Menten constant KM, (2) for appropriate comparison of the inhibitory activities to the other enzymes and inhibitors.[1]
(§5) KM values were determined by fitting to the Michaelis-Menten equation using Graphpad Prism 9 with v [ΔF/min] as the substrate hydrolysis rate, vmax as the maximum slope of the dose-response curve, and the substrate [S] concentration.[1] The different substrates were serially diluted in DMSO. The measurement was done in analogy to the determination of the inhibitory activity, but with 5 µL pure DMSO instead of inhibitor solution. […]
(§6) The following buffers and substrates were used for the respective assays: uPA (50 mM Tris HCl pH = 7.9, 150 mM […]
(§7) TMPRSS2 (25 mM Tris HCl pH = 8.0, 150 mM NaCl, 5 mM CaCl2, 0.001% TX-100, 100 µM Boc-Gln-Ala-Arg-AMC (KM: 68.63 ± 6.64 µM), 25 °C, 3 nM TMPRSS2)[3]; matriptase (50 mM Tris HCl pH = 8.0, 150 mM NaCl, 5 mM CaCl2, […]

Data set [2] deals with T2, tPA (Homo sapiens, UniProt P00750).
T2 construct: purchased Sigma Aldrich
T2 sequence (P00750 36-562): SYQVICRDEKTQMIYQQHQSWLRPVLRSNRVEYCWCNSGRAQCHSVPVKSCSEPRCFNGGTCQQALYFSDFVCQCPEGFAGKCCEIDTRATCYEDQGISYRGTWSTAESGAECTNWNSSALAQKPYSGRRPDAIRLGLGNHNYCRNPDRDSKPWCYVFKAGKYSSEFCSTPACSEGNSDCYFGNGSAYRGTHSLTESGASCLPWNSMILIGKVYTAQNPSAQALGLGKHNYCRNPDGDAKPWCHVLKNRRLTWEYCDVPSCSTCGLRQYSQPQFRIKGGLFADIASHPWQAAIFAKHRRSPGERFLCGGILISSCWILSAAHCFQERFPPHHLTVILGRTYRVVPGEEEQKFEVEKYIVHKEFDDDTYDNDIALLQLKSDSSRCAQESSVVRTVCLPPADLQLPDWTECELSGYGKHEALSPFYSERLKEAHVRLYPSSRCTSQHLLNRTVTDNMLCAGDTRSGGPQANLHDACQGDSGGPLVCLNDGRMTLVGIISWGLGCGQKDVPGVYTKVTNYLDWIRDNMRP
Briefly: colorimetric enzyme inhibition assay, tPA (N-methylsulfonyl-D-Phe-Gly-Arg-pNA). The note with it: from IC50 by Cheng-Prusoff; n.a. = not active, <80% inhibition at 20 µM. The data set is classed as biochemical. The protocol:
as §1, §2, §3, §4
KM values were determined by fitting to the Michaelis-Menten equation using Graphpad Prism 9 with v [ΔF/min] as the substrate hydrolysis rate, vmax as the maximum slope of the dose-response curve, and the substrate [S] concentration.[1] The different substrates were serially diluted in DMSO. […]

The nature of data set [3]: Parallel Artificial Membrane Permeation Assay (PAMPA). The data set is classed as in vitro ADME. As to conditions: TRIS 50 mM pH 7.4, 5% DMSO, 7 h at room temperature. The text has this:
Following the envisioned applications of the presented inhibitors as drug leads for the treatment of cancer or viral infections, cell permeability is an important factor in the characterization process. […] However, in the organismic contexts of oral bioavailability (facilitated application) and biodistribution (reaching target tissue), adequate permeation is an important quality. To assess this characteristic, PAMPA was used as a suitable model for passive permeation.
Figure S5: Stability analyses of a representative set of inhibitors. The depictions consist of compound structure and number, then analysis at t0, then analysis after 7 h at room temperature, then analysis after 12 h at 37 °C. […]
Incubation setup was assembled and left for 7 h at room temperature. Reference solutions were prepared by simply mixing the indicated volumes of donor and acceptor solutions at the start of the incubation period and analyzed later with the acceptor solutions. […]
Measurement setup for spectroscopy consisted of UV-transparent measurement plate (Greiner UV-Star®, 655801), Tecan Spark 10M® well plate reader, 200 µL sample volume, λ = 200–650 nm. […]
Measurement setup for LC/MS consisted of Agilent 1100 series HPLC system coupled to an Agilent 1100 series LC/MSD Trap with electron spray ionization (ESI). […] Retention time and mass spectrum recorded in positive ionization mode were used to assign species. […]

In data set [4] the target is T3, factor Xa (Homo sapiens, UniProt P00742).
T3 construct: purchased Bio-techne
T3 sequence (P00742 235-488 limits assumed): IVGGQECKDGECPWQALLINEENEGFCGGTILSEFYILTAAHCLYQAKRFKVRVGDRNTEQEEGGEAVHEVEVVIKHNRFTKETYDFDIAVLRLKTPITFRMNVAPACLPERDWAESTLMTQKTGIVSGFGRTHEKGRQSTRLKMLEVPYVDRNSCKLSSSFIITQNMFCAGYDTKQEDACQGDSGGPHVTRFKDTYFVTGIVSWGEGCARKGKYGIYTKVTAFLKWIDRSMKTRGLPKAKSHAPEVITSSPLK
T3 sequence (P00742 41-179 partner limits assumed): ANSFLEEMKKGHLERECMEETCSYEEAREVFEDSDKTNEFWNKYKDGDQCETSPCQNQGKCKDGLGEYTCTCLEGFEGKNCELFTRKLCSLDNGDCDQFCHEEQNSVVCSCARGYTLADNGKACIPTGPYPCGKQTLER
Briefly: colorimetric enzyme inhibition assay, factor Xa (Z-D-Arg-Gly-Arg-pNA). The data set is classed as biochemical. As to conditions: from IC50 by Cheng-Prusoff; n.a. = not active, <80% inhibition at 20 µM. The protocol: as §1, §2, §3, §4, §5, §6, §7

Take `CC(=O)NCC(=O)NC(C(=O)NC(C)C(=O)NC(CC1CCC(NC(=N)N)CC1)C(=O)c1nc2ccccc2s1)C(C)O` (centres unmarked) [Compound 38]: in data set [1], the “Ki Thrombin” value was “did not inhibit”. Moreover, in data set [2], the “Ki tPA” value was “did not inhibit”. For the same compound, the Papp at 7 h in data set [3] (PAMPA, read-out: PAMPA permeability Pe) is < 1 ×10⁻⁶ cm/s. Further, in data set [4], the “Ki Factor Xa” value was “did not inhibit”.

`CC(=O)N[C@@H](Cc1ccccc1)C(=O)N[C@@H](Cc1ccc(NC(=N)N)cc1)C(=O)c1nc2ccccc2s1` [Compound 33]: the “PAMPA permeability Pe” value in data set [3] is on record as “not enough to exert measurable permeability”.

These data come from paper PMC10855164, “Ligand-Based Design of Selective Peptidomimetic uPA and TMPRSS2 Inhibitors with Arg Bioisosteres” (International Journal of Molecular Sciences, 2024).
